Patent US8957192B2, “Human cytotoxic T-lymphocyte epitope and its agonist epitope from the non-variable number of tandem repeat sequence of MUC-1” (The United States of America, as represented by the …, priority 2003, dated 2015)
Several values for one entry are separate records, joined by “and”; a condition that tells them apart may be missing. Equal values may be shown once.

What was measured:
HLA-A2 molecule [1] = molecular target: HLA-A2 molecule (Homo sapiens, UniProt P04439, I166T/I218V/L300P/L318F/N151K/N90K/P208A/P217A/Q86G/Q94H/R138H/R169H/T345S); assay: T2 cell binding assay: peptide binding to HLA-A2 by flow cytometry
Description: In this assay, increased stability (accumulation) of HLA-A2 molecules on the surface of T2 cells as a consequence of peptide binding is measured by increased binding of antibody directed against HLA-A2 molecule. Briefly, 1×10^6 cells in serum-free Iscove's modified Dulbecco's complete medium were incubated with peptides at a concentration of 50 μg/ml in 24-well culture plates at 37° C. in 5% CO2. Flow cytometry for peptide binding was performed using T2 cells and single-color analysis. After cells were washed three times in DPBS, as described above, they were incubated for 1 h with a 1:100 dilution of HLA-A2-specific MAb (One Lambda, Inc.) per 10^6 cells. UPC-10 (Cappel/Organon Teknika) was used as isotype control. The cells were then washed three times and incubated with 1:100 dilution of FITC-labeled anti-mouse IgG (BD Biosciences). Analysis was conducted with the FACScan, as described above. Cells were maintained on ice during all cell preparation and staining.
The primary amino acid sequence of human MUC-1 was analyzed for consensus motifs for novel HLA-A2 binding peptides. […] The CEA CAP1-6D peptide and a NCA peptide were used as a positive and negative control, respectively.

peptide-HLA-A2 complexes = peptide-HLA-A2 complexes (Homo sapiens, UniProt P04439, D140Y/D185E/D98H/E176V/E277Q/G131W/G231S/I119V/I121R/I166T/I218V/L300P/L318F/N151K/N90K/P208A/P217A/Q86G/Q94H/R138H/R169H/T345S); assay: Stability of peptide-HLA-A2 complex on T2 cells (brefeldin-A); format: binding; conditions: 50 μg/ml overnight, 8-hour observation
Description: FIG. 2 is a graph showing the comparison of the stability of the complex of the P-92, P-93L or P-93I peptide with HLA-A2. T2 cells were incubated overnight with P-92 (open square), P-93L (closed square) or P-93I (closed triangle) peptide at a concentration of 50 μg/ml and then washed free of unbound peptide and incubated with brefeldin-A to block delivery of new class I molecules to the cell surface. At the indicated times, cells were stained for the presence of surface peptide-HLA-A2 complexes. Results are expressed in relative percentage of binding compared with 100% at time 0.
The stability of the peptide-MHC complex for peptides P-92 (native), P-93L and P-93I, was examined. Peptides were incubated with T2 cells overnight, the unbound peptides were washed off, and then incubated with brefeldin-A to block delivery of new class I molecules to the cell surface; at various time points cells were analyzed for the presence of peptide-HLA-A2 complexes.

HLA-A2 molecule [2] = molecular target: HLA-A2 molecule (Homo sapiens, UniProt P04439, D140Y/D185E/D98H/E176V/E277Q/G131W/G231S/I119V/I121R/I166T/I218V/L300P/L318F/N151K/N90K/P208A/P217A/Q86G/Q94H/R138H/R169H/T345S); assay: T2 cell binding assay: peptide binding to HLA-A2 by flow cytometry; conditions: peptides 0-50 μg/ml; MFI
T-1191-MUC-1 cells [3] = assay: IFN-γ production (ELISA) by T-1191-MUC-1 cells stimulated with peptide-pulsed autologous B cells; format: cell-based, human; conditions: for Production of IFN-γ, with peptide: T-1191-MUC-1 at IVS-3, autologous EBV-B cells pulsed 25 μg/ml, effector-to-APC 1:3, 24 h
Description: (§1) Supernatants of T cells exposed for 24 h to peptide-pulsed autologous EBV-transformed B cells, in IL-2-free medium at various peptide concentrations, were screened for secretion of IFN-γ using an ELISA kit (R & D Systems, Minneapolis, Minn.). The results were expressed in pg/ml. A CBA system (BD PharMingen, San Diego, Calif.) was also used to determine the secretion of multiple cytokines by specific T cells. The CBA system uses the fluorescence detection by flow cytometry to measure soluble analyses in a particles-based immunoassay. The BD human Th1/Th2 cytokine CBA Kit was used to measure IL-2, IL-4, IL-5, IL-10, TNF-α protein levels in a single sample. The cytokine capture beads were mixed with PE-conjugated detection antibodies and then incubated with recombinant cytokine standards or test samples to form sandwich complexes. The sample results were generated in graphic and tabular format, using BD PharMingen CBA analysis software. The results were expressed in pg/ml.
The specificity of the MUC-1-specific T cells generated (designated T-1191-MUC-1) was analyzed after IVS cycle 3 (see Materials and Methods) for their ability to release IFN-γ after stimulation with autologous B cells pulsed with each of the MUC-1 peptides listed in Table 1.

T-1191-MUC-1 cells [4] = assay: CBA assay for production of cytokines by MUC-1 peptide-stimulated T cells; format: cell-based, human; conditions: peptide 25 μg/ml; effector-to-APC 1:3; 24 h
Description: as §1
The ability of the P-93L and P-93I agonist peptides at various peptide concentrations, to activate the T-1191-MUC-1 cells, was compared. […] The P-93L agonist peptide was thus chosen for further study. The cytokine profile of T-1191-MUC-1 cells stimulated with APCs pulsed with either the P-92 or the P-93L peptide was then analyzed. A CBA assay was used for the analysis. […] No TNF-α could be detected in the supernatants at the 24-h time point.

[5] = tested on: MUC-1-specific T-cell lines T-23-P-92, T-23-P-93L, T-18-P-92, T-18-P-93L; assay: IFN-γ production by T-cell lines from two pancreatic cancer subjects stimulated with peptide-pulsed DCs; format: cell-based, human; conditions: IVS-4; allogeneic DCs pulsed 25 μg/ml; effector-to-APC 10:1; 24 h
[6] = tested on: CEA-specific T cells (V8T); format: cell-based, human; conditions: 24 h
[7] = tested on: MUC-1-specific T cells (T-1191-P93L); format: cell-based, human; conditions: 24 h
[8] = tested on: T-cell lines T-rV, T-rF, T-rF(CEA), T-rF(MUC); format: cell-based, human; conditions: 24 h
[9] = tested on: T-cell lines T-55, T-49, T-41; assay: IFN-γ production by T-cell lines from cancer patients established with rF-CEA/MUC/TRICOM-infected DCs; format: cell-based, human; conditions: autologous DCs as APC; peptides 25 μg/ml; effector-to-APC 10:1; 24 h
[10] = Table 1, T2 cells, peptide 50 μg/ml

In the case of AIWGQDVTSL [I-93/L-101], the T2 binding (HLA-A2 molecule [1]; Table 4, P-92 analogues) is reported as 280 relative fluorescence values.

AIWGQDVTSV [Peptide P-93I] was tested, and the T2 binding (HLA-A2 molecule [1]; Table 4, P-92 analogues) was 823 relative fluorescence values, the “stability of the peptide-HLA-A2 complex (FIG. 2)” value (peptide-HLA-A2 complexes) was “more stable than P-92-HLA-A2 complexes” and the “binding to HLA-A2 at various peptide concentrations (FIG. 1)” value (HLA-A2 molecule [2]) was “higher levels than P-92 at all peptide concentrations”.

ALAIVYLIAL [Peptide P-1172] was tested, and the T2 binding (HLA-A2 molecule [1]; [10]) was 372 relative fluorescence and the “Production of IFN-γ, with peptide” value (T-1191-MUC-1 cells [3]) was <52.3 pg/mL.

With ALLVLVCVLV [Peptide P-1162] the T2 binding (HLA-A2 molecule [1]; [10]) was 431 relative fluorescence and the “Production of IFN-γ, with peptide” value (T-1191-MUC-1 cells [3]) was <52.3 pg/mL.

ALWGQDVTSL [L-93/L-101] was tested, and the T2 binding (HLA-A2 molecule [1]; Table 4, P-92 analogues) was 736 relative fluorescence values.

For “ALWGQDVTSV [Peptide P-93L, MUC-1 agonist peptide]”, the T2 binding (HLA-A2 molecule [1]; Table 4, P-92 analogues) was 821 relative fluorescence values, the “IFN-γ production by T-1191-MUC-1 cells at various peptide concentrations (FIG. 3)” value (T-1191-MUC-1 cells [3]; peptides 0-6.25 μg/ml) was “greatest level of IFN-γ production” and the IFN-γ (T-1191-MUC-1 cells [4]) was 650 pg/ml/10^6 cell/ml. For the same sequence, the IL-2 (T-1191-MUC-1 cells [4]) was 366.9 pg/ml/10^6 cell/ml, the IL-4 (T-1191-MUC-1 cells [4]) was <20 pg/ml/10^6 cell/ml and the IL-5 (T-1191-MUC-1 cells [4]) was 140.9 pg/ml/10^6 cell/ml. For the same sequence, the IL-10 (T-1191-MUC-1 cells [4]) was <20 pg/ml/10^6 cell/ml, the TNF-α (T-1191-MUC-1 cells [4]) was <20 pg/ml/10^6 cell/ml and the “stability of the peptide-HLA-A2 complex (FIG. 2)” value (peptide-HLA-A2 complexes) was “more stable than P-92-HLA-A2 complexes”. For the same sequence, the “IFN-γ produced by T-18-P-92” value [5] was 366.6 pg, the “IFN-γ produced by T-18-P-93L” value [5] was 524.1 pg and the “IFN-γ produced by T-23-P-92” value [5] was 644.5 pg. The “IFN-γ produced by T-23-P-93L” value [5] was 973.0 pg, the “IFN-γ, CEA-specific CTL” value [6] was <15 pg/mL and the “IFN-γ, MUC-1-specific CTL” value [7] was 458 pg/mL and 550 pg/mL. For the same sequence, the “Production of IFN-γ by T-rF” value [8] was 446.0 pg/mL, the “Production of IFN-γ by T-rF(CEA)” value [8] was <15.6 pg/mL and the “Production of IFN-γ by T-rF(MUC)” value [8] was 626.8 pg/mL. For the same sequence, the “Production of IFN-γ by T-rV” value [8] was 514.0 pg/mL, the “IFN-γ secretion by T-41” value [9] was 745.0 pg/mL and the “IFN-γ secretion by T-49” value [9] was 819.0 pg/mL. The “IFN-γ secretion by T-55” value [9] was 985.8 pg/mL and the “binding to HLA-A2 at various peptide concentrations (FIG. 1)” value (HLA-A2 molecule [2]) was “higher levels than P-92 at all peptide concentrations”.

For AMWGQDVTSL [M-93/L-101], the T2 binding (HLA-A2 molecule [1]; Table 4, P-92 analogues) was 325 relative fluorescence values.

AMWGQDVTSV [Peptide M-93] was tested, and the T2 binding (HLA-A2 molecule [1]; Table 4, P-92 analogues) was 723 relative fluorescence values.

In the case of ATWGQDVTSV [Peptide P-92], the T2 binding (HLA-A2 molecule [1]; [10]) is reported as 740 relative fluorescence, the T2 binding (HLA-A2 molecule [1]; Table 4, P-92 analogues) is reported as 510 relative fluorescence values and the “Production of IFN-γ, with peptide” value (T-1191-MUC-1 cells [3]) is reported as 380.8 pg/mL. For the same sequence, the IFN-γ (T-1191-MUC-1 cells [4]) was 266 pg/ml/10^6 cell/ml, the IL-2 (T-1191-MUC-1 cells [4]) was 58.8 pg/ml/10^6 cell/ml and the IL-4 (T-1191-MUC-1 cells [4]) was <20 pg/ml/10^6 cell/ml. For the same sequence, the IL-5 (T-1191-MUC-1 cells [4]) was <20 pg/ml/10^6 cell/ml, the IL-10 (T-1191-MUC-1 cells [4]) was <20 pg/ml/10^6 cell/ml and the TNF-α (T-1191-MUC-1 cells [4]) was <20 pg/ml/10^6 cell/ml. For the same sequence, the “IFN-γ produced by T-18-P-92” value [5] was 168.0 pg, the “IFN-γ produced by T-18-P-93L” value [5] was 378.2 pg and the “IFN-γ produced by T-23-P-92” value [5] was 299.8 pg. For the same sequence, the “IFN-γ produced by T-23-P-93L” value [5] was 400.5 pg.

With GTQSPFFLLL [Peptide P-4] the T2 binding (HLA-A2 molecule [1]; [10]) was 467 relative fluorescence and the “Production of IFN-γ, with peptide” value (T-1191-MUC-1 cells [3]) was 260.0 pg/mL.
